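All cell lines were grown in 96-well plates and treated with compound for 48 hours. Here, GI50 denotes the concentration required for 50% inhibition of growth.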 Calls of active or inactive are those of the source. Cut-off read from the data, not from the text of the source: active = GI50 up to about 1.1 µM and inactive = higher.
Tests used:
Experiment in all cases: NCI anticancer screen, dose series, 48 h
A498 = system: A498
CCRF-CEM = system: CCRF-CEM
HCC 2998 = system: HCC 2998
HCT-116 = system: HCT-116
HOP-92 = system: HOP-92
K562 = system: K562
M14 = system: M14
MDA-N = system: MDA-N
NCI-H23 = system: NCI-H23
OVCAR-4 = system: OVCAR-4
OVCAR-8 = system: OVCAR-8
SF-295 = system: SF-295
SK-MEL-5 = system: SK-MEL-5
SNB-75 = system: SNB-75
SR = system: SR
SW-620 = system: SW-620
U-251 = system: U-251
UACC-257 = system: UACC-257
UACC-62 = system: UACC-62

Measured: GI50

CC1(C)CC(=O)c2c(-c3ccc(Cl)cc3)c(C#N)c(=S)n(C3OC(CO)C(O)C(O)C3O)c2C1 (stereo not drawn)
inactive: A498 34 µM | CCRF-CEM 26.2 µM | HCC 2998 36.7 µM | HCT-116 16 µM | HOP-92 21.2 µM | K562 13.6 µM | M14 45.7 µM | MDA-N 19.1 µM | NCI-H23 50.8 µM | OVCAR-4 49.2 µM | OVCAR-8 35.7 µM | SF-295 38 µM | SK-MEL-5 15.2 µM | SNB-75 25.3 µM | SR 22 µM | SW-620 36.6 µM | U-251 21.7 µM | UACC-257 28.4 µM | UACC-62 16.8 µM

N#CC1=C(N)OC2=C(CCCc3ccccc32)C1c1ccc([N+](=O)[O-])cc1 (stereo not drawn)
inactive: A498 12 µM | CCRF-CEM 4.52 µM | HCC 2998 13.6 µM | HCT-116 12.8 µM | HOP-92 19.1 µM | K562 2.07 µM | M14 13.6 µM | MDA-N 15.9 µM | NCI-H23 15.2 µM | OVCAR-4 15.8 µM | OVCAR-8 17.9 µM | SF-295 14.9 µM | SK-MEL-5 14.3 µM | SNB-75 55 µM | SR 10.9 µM | SW-620 13.6 µM | U-251 15.5 µM | UACC-257 14.8 µM | UACC-62 11.2 µM

CC(=O)c1c(C)cc2cccc(OC3OC(CO)C(O)C(O)C3O)c2c1O.CC1OC(O)C(O)C(O)C1O (stereo not drawn)
inactive: A498 > 100 µM | CCRF-CEM > 100 µM | HCC 2998 > 100 µM | HCT-116 > 100 µM | HOP-92 > 100 µM | K562 > 100 µM | M14 > 100 µM | MDA-N > 100 µM | NCI-H23 > 100 µM | OVCAR-4 > 100 µM | OVCAR-8 > 100 µM | SF-295 > 100 µM | SK-MEL-5 > 100 µM | SNB-75 > 100 µM | SR > 100 µM | SW-620 > 100 µM | U-251 > 100 µM | UACC-257 > 100 µM | UACC-62 > 100 µM

COC12C=CC(C=C1C#N)CC2.COC12C=CC(CC1)CC2=O (stereo not drawn)
inactive: A498 > 100 µM | CCRF-CEM > 100 µM | HCC 2998 > 100 µM | HCT-116 > 100 µM | HOP-92 > 100 µM | K562 > 100 µM | M14 > 100 µM | MDA-N > 100 µM | NCI-H23 > 100 µM | OVCAR-4 > 100 µM | OVCAR-8 > 100 µM | SF-295 > 100 µM | SK-MEL-5 > 100 µM | SNB-75 67.8 µM | SR > 100 µM | SW-620 > 100 µM | U-251 > 100 µM | UACC-257 > 100 µM | UACC-62 > 100 µM

CC(C)[Si]1(C(C)C)OCC2OC(n3cnc4c(N)ncnc43)C(N)C2O[Si](C(C)C)(C(C)C)O1 (stereo not drawn)
inactive: A498 13.9 µM | CCRF-CEM 9.29 µM | HCC 2998 4.79 µM | HCT-116 4.14 µM | HOP-92 11.8 µM | K562 3.51 µM | M14 8.45 µM | MDA-N 6.32 µM | NCI-H23 9.16 µM | OVCAR-4 8.09 µM | OVCAR-8 8.24 µM | SF-295 3.65 µM | SK-MEL-5 2.06 µM | SNB-75 4.69 µM | SR 2.42 µM | SW-620 6.41 µM | U-251 8.32 µM | UACC-257 5.73 µM | UACC-62 10.1 µM

C#CCn1ncc2c(SC)ncnc21
inactive: A498 > 100 µM | CCRF-CEM > 100 µM | HCC 2998 > 100 µM | HCT-116 > 100 µM | HOP-92 > 100 µM | K562 > 100 µM | M14 > 100 µM | MDA-N > 100 µM | NCI-H23 > 100 µM | OVCAR-4 > 100 µM | OVCAR-8 > 100 µM | SF-295 > 100 µM | SK-MEL-5 > 100 µM | SNB-75 33.8 µM | SR > 100 µM | SW-620 > 100 µM | U-251 > 100 µM | UACC-257 > 100 µM | UACC-62 > 100 µM

Cc1c(C(C)C)cc(OCCO)cc1C(C)C
inactive: A498 31.3 µM | CCRF-CEM 35.4 µM | HCC 2998 55.6 µM | HCT-116 31.3 µM | HOP-92 19.8 µM | K562 41.7 µM | M14 38.8 µM | MDA-N 31.2 µM | NCI-H23 42.3 µM | OVCAR-4 33.5 µM | OVCAR-8 42.3 µM | SF-295 34.4 µM | SK-MEL-5 17.6 µM | SNB-75 23.9 µM | SR 26.7 µM | SW-620 71.9 µM | U-251 40.6 µM | UACC-257 35.2 µM | UACC-62 40.6 µM
